US20240391965A1, “STAPLED ANTIMICROBIAL PEPTIDES (STAMPS) AND USES THEREOF” (Lytica Therapeutics, Inc., priority 2021, published 2024)
Converted amounts (≈) assume the structure as drawn. Starred links: 1 amine or outer side, 2 acyl side, 3 side chain; linkers in the order of their positions; H or OH if unused. Positions of bridges follow the written chain, without caps; N, C: chain ends. Residues, ends and D or L forms follow the SMILES beside them. 2,2'Bipyridine(5,5'-diCH2) = c1cc(-c2ccc(C[*:2])cn2)ncc1C[*:1]; Naphthalene(2,6-diCH2) = c1cc2cc(C[*:2])ccc2cc1C[*:1]

Columns and labels:
[1] = system: Acinetobacter baumannii (A. baumannii); assay type: cell-based; conditions: microbroth dilution, 20-24 hours at 37° C.
Experimental: (§1) Antimicrobial Activity Assay: The following microbroth dilution protocol was adapted from CLSI to determine the minimum inhibitory concentration (MIC) of StAMPs. Briefly, Mueller-Hinton broth (MHB) or cation-adjusted Mueller-Hinton broth (MHB II) was prepared and autoclaved. Then, a colony of bacterial cells was picked and grown overnight in broth at 37° C. and then diluted and allowed to grow again for 3-4 hours. Serial dilutions of peptide stocks in water (10 μl) were prepared using clear round-bottom polypropylene 96-well plates. Then 90 μl of bacteria in broth was added to give a final inoculum of 5×10^5 CFU/ml. The plates were then covered with porous tape to reduce evaporation and incubated for 20-24 hours at 37° C. The MIC was the minimum peptide concentration at which no visible bacterial growth was observed.

[2] = system: Escherichia coli (E. coli); assay type: cell-based; conditions: microbroth dilution, 20-24 hours at 37° C.
Experimental: as §1

[3] = system: Klebsiella pneumoniae (K. pneumoniae); assay type: cell-based; conditions: microbroth dilution, 20-24 hours at 37° C.
Experimental: as §1

[4] = system: Pseudomonas aeruginosa (P. aeruginosa); assay type: cell-based; conditions: microbroth dilution, 20-24 hours at 37° C.
Experimental: as §1

[5] = system: Staphylococcus aureus (S. aureus); assay type: cell-based; conditions: microbroth dilution, 20-24 hours at 37° C.
Experimental: as §1

[6] = 48 hours cytotoxicity assay (CellTiter-Glo), liver toxicity; assay type: cell-based, human; conditions: 48 hours of incubation, CellTiter-Glo; read-out: Inhibitory Concentration at 50% Cytotoxicity (IC50) Human Liver Cells (HepG2)
How it was run: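 HepG2 cells in EMEM with 10% FBS, allowed to attach 4 h, then exposed to serially diluted StAMPs or vehicle for 48 h at 37 °C. Viability read by CellTiter-Glo luminescence.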

Structure (SMILES)	Minimum Inhibitory Concentration (MIC) A. baumannii [1] [µg/mL]	Minimum Inhibitory Concentration (MIC) E. coli [2] [µg/mL]	Minimum Inhibitory Concentration (MIC) K. pneumoniae [3] [µg/mL]	Minimum Inhibitory Concentration (MIC) P. aeruginosa [4] [µg/mL]	Minimum Inhibitory Concentration (MIC) S. aureus [5] [µg/mL]	IC50 [6] [µg/mL]
CC[C@H](C)[C@H](NC(=O)CN)C(=O)N[C@@H](Cc1ccccc1)C(=O)N[C@@H](CO)C(=O)N[C@@H](CCCCN)C(=O)N[C@@H](CC(C)C)C(=O)N[C@@H](C)C(=O)N[C@H]1CSCc2ccc3cc(ccc3c2)CSC[C@@H](C(=O)N[C@H](C(=O)N[C@@H](CO)C(=O)NCC(=O)N[C@@H](CC(C)C)C(=O)N[C@@H](CCCCN)C(=O)NCC(N)=O)[C@@H](C)CC)NC(=O)[C@H](CC(C)C)NC(=O)[C@H](CC(N)=O)NC(=O)[C@H](CCCCN)NC(=O)[C@H]([C@@H](C)CC)NC(=O)[C@H](CCCCN)NC(=O)[C@H](CCCCN)NC1=O [compound 67] (H-GIFSKLACKKIKNLCISGLKG-NH2; linker 8-15 via Naphthalene(2,6-diCH2))	4	4	8	32	>64	59 (≈ 24.9 µM)
CC[C@H](C)[C@H](NC(=O)CN)C(=O)N[C@@H](Cc1ccccc1)C(=O)N[C@@H](CO)C(=O)N[C@@H](CCCCN)C(=O)N[C@@H](CC(C)C)C(=O)N[C@@H](C)C(=O)NCC(=O)N[C@H]1CSCc2ccc3cc(ccc3c2)CSC[C@@H](C(=O)N[C@@H](CO)C(=O)NCC(=O)N[C@@H](CC(C)C)C(=O)N[C@@H](CCCCN)C(=O)NCC(N)=O)NC(=O)[C@H](CC(C)C)NC(=O)[C@H](CC(C)C)NC(=O)[C@H](CC(N)=O)NC(=O)[C@H](CCCCN)NC(=O)[C@H]([C@@H](C)CC)NC(=O)[C@H](CCCCN)NC1=O [compound 69] (H-GIFSKLAGCKIKNLLCSGLKG-NH2; linker 9-16 via Naphthalene(2,6-diCH2); N-terminus assumed)	16	16	32	>64	>64	52 (≈ 22.6 µM)
CC[C@H](C)[C@H](NC(=O)CN)C(=O)N[C@@H](Cc1ccccc1)C(=O)N[C@@H](CO)C(=O)N[C@@H](CCCCN)C(=O)N[C@@H](CC(C)C)C(=O)N[C@@H](C)C(=O)NCC(=O)N[C@H]1CSCc2ccc(nc2)-c2ccc(cn2)CSC[C@@H](C(=O)N[C@@H](CO)C(=O)NCC(=O)N[C@@H](CC(C)C)C(=O)N[C@@H](CCCCN)C(=O)NCC(N)=O)NC(=O)[C@H](CC(C)C)NC(=O)[C@H](CC(C)C)NC(=O)[C@H](CC(N)=O)NC(=O)[C@H](CCCCN)NC(=O)[C@H]([C@@H](C)CC)NC(=O)[C@H](CCCCN)NC1=O [compound 71] (H-GIFSKLAGCKIKNLLCSGLKG-NH2; linker 9-16 via 2,2'Bipyridine(5,5'-diCH2); N-terminus assumed)	32	64	>64	>64	>64	360 (≈ 155 µM)
CC[C@H](C)[C@H](NC(=O)CN)C(=O)N[C@@H](Cc1ccccc1)C(=O)N[C@@H](CO)C(=O)N[C@@H](CCCCN)C(=O)N[C@@H](CC(C)C)C(=O)N[C@@H](C)C(=O)NCC(=O)N[C@@H](CCCCN)C(=O)N[C@@H](CCCCN)C(=O)N[C@H]1CSCc2ccc3cc(ccc3c2)CSC[C@@H](C(=O)N[C@@H](CC(C)C)C(=O)N[C@@H](CCCCN)C(=O)NCC(N)=O)NC(=O)[C@H](CO)NC(=O)[C@H]([C@@H](C)CC)NC(=O)[C@H](CC(C)C)NC(=O)[C@H](CC(C)C)NC(=O)[C@H](CC(N)=O)NC(=O)[C@H](CCCCN)NC1=O [compound 75] (H-GIFSKLAGKKCKNLLISCLKG-NH2; linker 11-18 via Naphthalene(2,6-diCH2); N-terminus assumed)	4	4	16	16	64	98 (≈ 41.3 µM)
CC[C@H](C)[C@H](NC(=O)CN)C(=O)N[C@@H](Cc1ccccc1)C(=O)N[C@@H](CO)C(=O)N[C@@H](CCCCN)C(=O)N[C@@H](CC(C)C)C(=O)N[C@@H](C)C(=O)NCC(=O)N[C@@H](CCCCN)C(=O)N[C@@H](CCCCN)C(=O)N[C@H]1CSCc2ccc(nc2)-c2ccc(cn2)CSC[C@@H](C(=O)N[C@@H](CC(C)C)C(=O)N[C@@H](CCCCN)C(=O)NCC(N)=O)NC(=O)[C@H](CO)NC(=O)[C@H]([C@@H](C)CC)NC(=O)[C@H](CC(C)C)NC(=O)[C@H](CC(C)C)NC(=O)[C@H](CC(N)=O)NC(=O)[C@H](CCCCN)NC1=O [compound 77] (H-GIFSKLAGKKCKNLLISCLKG-NH2; linker 11-18 via 2,2'Bipyridine(5,5'-diCH2); N-terminus assumed)	4	4	32	32	>64	159 (≈ 66.2 µM)
CC[C@H](C)[C@H](NC(=O)CN)C(=O)N[C@@H](Cc1ccccc1)C(=O)N[C@@H](CO)C(=O)N[C@@H](CCCCN)C(=O)N[C@@H](CC(C)C)C(=O)N[C@@H](C)C(=O)NCC(=O)N[C@@H](CCCCN)C(=O)N[C@@H](CCCCN)C(=O)N[C@H](C(=O)N[C@H]1CSCc2ccc3cc(ccc3c2)CSC[C@@H](C(=O)N[C@@H](CCCCN)C(=O)NCC(N)=O)NC(=O)CNC(=O)[C@H](CO)NC(=O)[C@H]([C@@H](C)CC)NC(=O)[C@H](CC(C)C)NC(=O)[C@H](CC(C)C)NC(=O)[C@H](CC(N)=O)NC1=O)[C@@H](C)CC [compound 78] (H-GIFSKLAGKKICNLLISGCKG-NH2; linker 12-19 via Naphthalene(2,6-diCH2); N-terminus assumed)	16	16	64	64	>64	108 (≈ 46.9 µM)
CC[C@H](C)[C@H](NC(=O)CN)C(=O)N[C@@H](Cc1ccccc1)C(=O)N[C@@H](CO)C(=O)N[C@@H](CCCCN)C(=O)N[C@@H](CC(C)C)C(=O)N[C@@H](C)C(=O)NCC(=O)N[C@@H](CCCCN)C(=O)N[C@@H](CCCCN)C(=O)N[C@H](C(=O)N[C@H]1CSCc2ccc(nc2)-c2ccc(cn2)CSC[C@@H](C(=O)N[C@@H](CCCCN)C(=O)NCC(N)=O)NC(=O)CNC(=O)[C@H](CO)NC(=O)[C@H]([C@@H](C)CC)NC(=O)[C@H](CC(C)C)NC(=O)[C@H](CC(C)C)NC(=O)[C@H](CC(N)=O)NC1=O)[C@@H](C)CC [compound 80] (H-GIFSKLAGKKICNLLISGCKG-NH2; linker 12-19 via 2,2'Bipyridine(5,5'-diCH2); N-terminus assumed)	32	32	>64	>64	>64	49 (≈ 21 µM)
CC[C@H](C)[C@H](NC(=O)CN)C(=O)N[C@@H](Cc1ccccc1)C(=O)N[C@@H](CO)C(=O)N[C@@H](CCCCN)C(=O)N[C@@H](CC(C)C)C(=O)N[C@@H](C)C(=O)NCC(=O)N[C@@H](CCCCN)C(=O)N[C@@H](CCCCN)C(=O)N[C@H](C(=O)N[C@@H](CCCCN)C(=O)N[C@H]1CSCc2ccc(nc2)-c2ccc(cn2)CSC[C@@H](C(=O)NCC(N)=O)NC(=O)[C@H](CC(C)C)NC(=O)CNC(=O)[C@H](CO)NC(=O)[C@H]([C@@H](C)CC)NC(=O)[C@H](CC(C)C)NC(=O)[C@H](CC(C)C)NC1=O)[C@@H](C)CC [compound 81] (H-GIFSKLAGKKIKCLLISGLCG-NH2; linker 13-20 via 2,2'Bipyridine(5,5'-diCH2); N-terminus assumed)	4	4	8	32	>64	57 (≈ 24.5 µM)
